“Also recorded” adds a separate entry of the source.
Legend:
HLF cells (fibroblasts) = experiment: in vitro gel contraction assay; assay type: cell-based; details: for TGF-β induced fibroblast contracture (gel contraction): TGF-β + RXD, 48 hour incubation
Experimental: Evaluation of fibroblasts contractility was performed as previously described by […] et al (Bio-protocol 8(18): e3021, 2018). Briefly, HLF cells are resuspended in 1 mg/ml collagen and then pipetted into 24 well plates. Collagen is allowed to solidify for 30 minutes at room temperature. Media (500 μl) is then added to each of the wells and the gels are dissociated from the walls of the well. Gels are treated and allowed to incubate for 48 hours at 37° C. and 5% CO2. After the 48 hour incubation, gels are stained with crystal violet stain in order to better visualize contraction. Images are analyzed using Image J software and the fold change compared to a no cell control is determined.

[1] = system: smooth muscle actin (SMA) in fibroblasts; experiment: TGF-β induced smooth muscle actin (SMA) in fibroblasts (Western blot, immunohistochemistry); assay type: cell-based; details: TGF-β stimulated fibroblasts
Description: Scar contracture is a painful aspect of hypertrophic scarring due to increased SMA in the fibroblasts. During the inflammatory phase of wound healing, the cytokine transforming growth factor β (TGF-β) is secreted and can activate fibroblasts to produce SMA.

[2] = system: incisional wound in C57bl/6 mice; experiment: rodent incisional wound model, incision sutured with silk imbedded with drug; assay type: in vivo, mouse
Description: As there are no murine models for hypertrophic or keloid scarring, the inventors relied on a classic rodent incisional wound model consisting of a longitudinal para-vertebral incision 1-2 cm long through the entire thickness of the skin and cutaneous muscle. Wounds (WD) and size matched pieces of dorsal dermis (CTR) were excised and processed for light and polarized light microscopy: fixation, embedding, sectioning and stained with hematoxylin-eosin (inflammatory cells) and Gomori Trichrome (collagen staining), tensile strength measurements and qPCR.
In some experiments, a drug was delivered locally and directly to the wound. In some embodiments, the drug was impregnated in the wound closure material, silk suture. In some experiments, the drug was eluted into the wound during wound healing leading to closure and scar formation. Wound healing was monitored over 14 days.
Wounds (WD) and size matched pieces of dorsal dermis (CTR) were excised and processed for light microscopy: fixation, embedding, sectioning and stained with hematoxylin-eosin (inflammatory cells) and Gomori Trichrome (collagen staining).
Using wild type C57bl/6 mice, wound healing experiments were next performed where the incision was sutured with silk imbedded with ketotifen, a mast cell stabilizer. This way the drug could be delivered continuously and locally during wound healing.

[3] = 14 days post-incision, C57bl/6 mice, ketotifen-impregnated silk vs untreated silk

Structure (SMILES)	fibroblast gel contraction, change from control (HLF cells (fibroblasts); RXD added alone, vs control)	TGF-β induced fibroblast contracture (gel contraction) (HLF cells (fibroblasts))	TGF-β induced fibroblast contracture (gel contraction) (HLF cells (fibroblasts); listed as Roxadustat)	SMA staining of fibroblasts (immunohistochemistry) [1]	abundance of TGF-β induced SMA in fibroblasts (Western blot) [1]	abundance of TGF-β induced SMA in fibroblasts (Western blot) ([1]; listed as Roxadustat)	relative abundance of newly synthesized collagen III mRNA in excised wound scar (q-PCR) ([2]; 14-day, drug group compared to untreated)	inflammatory response to the incisional wound (immune cells in H&E stained scar) ([2]; 7 days post-incision, C57bl/6 mice, ketotifen eluted from silk suture vs untreated wound)	scar collagen content (Gomori trichrome stain) [2, 3]	scar width (Gomori trichrome stain) [2, 3]	tensile strength of the scar (peak tension, tensitometry) ([2]; 14 days post-incision, ketotifen-treated vs untreated mice)	newly synthesized collagen III in wound scar (birefringence microscopy) ([2]; ketotifen eluted from suture vs suture alone)
Cc1nc(C(=O)NCC(=O)O)c(O)c2ccc(Oc3ccccc3)cc12 [RXD, N-[(4-hydroxy-1-methyl-7-phenoxyisoquinolin-3-yl)carbonyl]glycine]	significant changes	inhibited	significantly reduces	inhibited	inhibited	significantly reduces						
CN1CCC(=C2c3ccccc3CC(=O)c3sccc32)CC1 [ketotifen]							significantly less	lessens the inflammatory response	decreases	significantly less; also recorded: decreases	not affected	less newly synthesized collagen III; also recorded: decreases newly synthesized collagen (III)

From patent US20210299116A1, “METHODS FOR REDUCING ABNORMAL SCAR FORMATION” (CORNELL UNIVERSITY, priority 2018, published 2021)
